Data reported in PMC5829263, “Homoarginine and inhibition of human arginase activity: kinetic characterization and biological relevance” (Scientific Reports, 2018).
Several values for one entry are separate records, joined by “and”; a condition that tells them apart may be missing. Equal values may be shown once. Read-outs that look alike come from different tables or passages of the source. Values belong to the compound of their own block, whether it stands above or below them.

Key:
[1] = target: T1, recombinant human arginase 1 (Homo sapiens, UniProt P05089); assay: Arginase 1 activity assay, kinetics of ARG conversion to ORN; type: biochemical; details: conversion of ARG to ORN
T1 sequence (P05089 1-322): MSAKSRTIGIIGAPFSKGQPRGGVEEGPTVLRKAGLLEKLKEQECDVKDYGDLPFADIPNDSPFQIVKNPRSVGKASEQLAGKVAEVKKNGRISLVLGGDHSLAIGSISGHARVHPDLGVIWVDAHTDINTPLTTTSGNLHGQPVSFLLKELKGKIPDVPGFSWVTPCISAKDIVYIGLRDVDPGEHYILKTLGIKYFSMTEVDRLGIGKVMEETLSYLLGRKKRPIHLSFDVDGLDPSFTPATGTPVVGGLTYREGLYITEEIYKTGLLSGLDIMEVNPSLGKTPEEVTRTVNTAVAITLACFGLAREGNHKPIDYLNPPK
Protocol: Incubation mixtures contained HEK293T cell lysate expressing recombinant human arginase 1 (0.05 mg/mL) or arginase 2 (0.1 mg/mL), phosphate buffer (0.05 M, pH 7.4) and ARG (0 to 15 mM).
(§1) Following a 5-min pre-equilibration period reactions were initiated by the addition of the cell lysate solution in 0.05 M phosphate buffer to a pre-equilibrated aqueous solution of the substrate (ARG).
(§2) The samples were vortex mixed (20 sec) and cooled in an ice/water bath for 10 min prior to centrifugation (5 min, 18,000 × g, room temperature) to precipitate the proteins. An aliquot of the supernatant layer was diluted with a 7:3 mobile phase A/mobile phase B solution into glass UPLC vial inserts.
Kinetic data are the mean of three singlicate experiments.

arginase 1 = details: arginase 1; range previously reported; cited from earlier work
[2] = target: T2, recombinant human arginase 2 (Homo sapiens, UniProt P78540); assay: Arginase 2 activity assay, kinetics of ARG conversion to ORN; type: biochemical
T2 sequence (P78540 23-354): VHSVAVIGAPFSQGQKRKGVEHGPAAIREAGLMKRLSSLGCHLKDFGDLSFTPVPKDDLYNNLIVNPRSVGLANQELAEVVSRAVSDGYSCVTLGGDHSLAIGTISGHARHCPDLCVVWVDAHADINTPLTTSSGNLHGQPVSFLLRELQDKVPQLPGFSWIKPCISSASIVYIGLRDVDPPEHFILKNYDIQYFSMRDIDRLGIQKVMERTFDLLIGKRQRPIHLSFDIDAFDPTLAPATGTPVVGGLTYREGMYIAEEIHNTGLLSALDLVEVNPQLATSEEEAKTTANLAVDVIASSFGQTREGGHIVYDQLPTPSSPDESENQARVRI

arginase 2 = details: cited from earlier work
[3] = target: T2, recombinant human arginase 2; assay: Arginase 2 inhibition, UPLC-MS measurement of ARG to ORN conversion in HEK293T cell lysate; details: for remaining activity at 1 µM / remaining activity at 10 µM / remaining activity at 100 µM / remaining activity at 1000 µM / remaining activity at 10000 µM: read-out: % of control activity at the corresponding [Inhibitor] ± SE, arginase 2, mean of two experiments; for remaining activity at 1 µM: inhibitor 1 µM; for remaining activity at 10 µM: inhibitor 10 µM; for remaining activity at 100 µM: inhibitor 100 µM; for remaining activity at 1000 µM: inhibitor 1,000 µM; for remaining activity at 10000 µM: inhibitor 10,000 µM; for inhibition at 1000 µM: inhibitor 1 mM; for inhibition at 10000 µM: inhibitor 10 mM;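 as to all read-outs here: HEK293T lysate carrying arginase 2 at 0.1 mg/mL in 0.05 M phosphate buffer pH 7.4, inhibitor preincubated with enzyme 5 min before ARG addition started the reaction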
Protocol: as §1, §2
Incubation mixtures comprised of HEK293T cell lysate expressing arginase 1 (0.05 mg/mL) or arginase 2 (0.1 mg/mL), phosphate buffer (0.05 M, pH 7.4), inhibitor (0, 0.1, 1, 10, 100, 1000 or 10000 μM) and ARG (0.1, 2 or 3 mM). Following a 5-min pre-incubation of the potential inhibitor with arginase 1 or arginase 2, reactions were initiated by the addition of a pre-equilibrated solution of the substrate ARG.
Sample were diluted 3:17 in mobile phase solution prior injection.

[4] = target: T1, recombinant human arginase 1; assay: Arginase 1 inhibition, UPLC-MS measurement of ARG to ORN conversion in HEK293T cell lysate; details: for remaining activity at 1 µM / remaining activity at 10 µM / remaining activity at 100 µM / remaining activity at 1000 µM / remaining activity at 10000 µM: read-out: % of control activity at the corresponding [Inhibitor] ± SE, arginase 1, mean of two experiments; for remaining activity at 1 µM: inhibitor 1 µM; for remaining activity at 10 µM: inhibitor 10 µM; for remaining activity at 100 µM: inhibitor 100 µM; for remaining activity at 1000 µM: inhibitor 1,000 µM; for remaining activity at 10000 µM: inhibitor 10,000 µM; for inhibition at 1000 µM: inhibitor 1 mM; for inhibition at 10000 µM: inhibitor 10 mM;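 as to all read-outs here: arginase 1–expressing HEK293T lysate at 0.05 mg/mL in pH 7.4 phosphate buffer, inhibitor preincubated 5 min with enzyme, then reaction started by adding ARG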
[5] = read-out: inhibition of arginase 2, ARG 100 µM
[6] = read-out: inhibition of arginase 2, ARG 2 mM
[7] = read-out: inhibition of arginase 1 activity, ARG 100 µM (physiological)
[8] = read-out: inhibition of arginase 1 activity, ARG 3 mM (Km)

SMILES: N=C(N)NCCC[C@H](N)C(=O)O [ARG, arginine]
Vmax (nmol·min^−1·mg^−1) ± SE ([1]; Expt 1): 37 ± 1 nmol/min/mg
Km ([1]; Expt 1, read-out: Km (mM) ± SE): 3.4 ± 0.4 mM
Vmax (nmol·min^−1·mg^−1) ± SE ([1]; Expt 2): 32 ± 1 nmol/min/mg
Km ([1]; Expt 2, read-out: Km (mM) ± SE): 3.8 ± 0.2 mM
Vmax (nmol·min^−1·mg^−1) ± SE ([1]; Expt 3): 35 ± 1 nmol/min/mg
Km ([1]; Expt 3, read-out: Km (mM) ± SE): 3.5 ± 0.2 mM
Vmax (nmol·min^−1·mg^−1) ± SE ([1]; Mean): 34 ± 1 nmol/min/mg
Km (arginase 1): 1000 to 9000 µM
Vmax (pmol·min^−1·mg^−1) ± SE ([2]; Expt 1): 984 ± 8 pmol/min/mg
Km ([2]; Expt 1, read-out: Km (mM) ± SE): 2.4 ± 0.1 mM
Vmax (pmol·min^−1·mg^−1) ± SE ([2]; Expt 2): 837 ± 12 pmol/min/mg
Km ([2]; Expt 2, read-out: Km (mM) ± SE): 1.7 ± 0.1 mM
Vmax (pmol·min^−1·mg^−1) ± SE ([2]; Expt 3): 834 ± 5 pmol/min/mg
Km ([2]; Expt 3, read-out: Km (mM) ± SE): 1.8 ± 0.1 mM
Vmax (pmol·min^−1·mg^−1) ± SE ([2]; Mean): 883 ± 16 pmol/min/mg
Km ([2]; Mean, read-out: Km (mM) ± SE): 1.9 ± 0.1 mM
Km (arginase 2; arginase 2, range previously reported): 1000 to 7000 µM

Ki [3]: 500 ± 30 µM
IC50 ([3]; IC50 ( ± SE), arginase 2, ARG 2 mM): 900 µM and 880 µM
inhibition model fitting the data ([3]; arginase 2, poorly fit by uncompetitive, noncompetitive and mixed models): competitive
inhibition of arginase 2 at physiological inhibitor concentrations ([3]; physiological LYS and HOMOARG concentrations): no significant inhibition
remaining activity at 1 µM ([3]; ARG 100 µM): 92 ± 6%
remaining activity at 10 µM ([3]; ARG 100 µM): 97 ± 5%
remaining activity at 100 µM ([3]; ARG 100 µM): 78 ± 11%
remaining activity at 1000 µM ([3]; ARG 100 µM): 56 ± 14%
remaining activity at 10000 µM ([3]; ARG 100 µM): 12 ± 4%
remaining activity at 1 µM ([3]; ARG 2 mM): 88 ± 6%
remaining activity at 10 µM ([3]; ARG 2 mM): 82 ± 6%
remaining activity at 100 µM ([3]; ARG 2 mM): 84 ± 5%
remaining activity at 1000 µM ([3]; ARG 2 mM): 58 ± 1%
remaining activity at 10000 µM ([3]; ARG 2 mM): 33 ± 4%
inhibition at 1000 µM [3, 5]: 44%
inhibition at 10000 µM [3, 5]: 88%
inhibition at 1000 µM [3, 6]: 42%
inhibition at 10000 µM [3, 6]: 67%
inhibitory effect on arginase 1 activity at physiological inhibitor concentrations ([4]; LYS 100–1000 µM, HOMOARG 1–10 µM): no significant inhibitory effects
inhibition model fitting the data ([4]; arginase 1, poorly fit by uncompetitive, noncompetitive and mixed models): competitive
remaining activity at 1 µM ([4]; ARG 100 µM): 88 ± 21%
remaining activity at 10 µM ([4]; ARG 100 µM): 89 ± 10%
remaining activity at 100 µM ([4]; ARG 100 µM): 105 ± 18%
remaining activity at 1000 µM ([4]; ARG 100 µM): 56 ± 5%
remaining activity at 10000 µM ([4]; ARG 100 µM): 19 ± 1%
remaining activity at 1 µM ([4]; ARG 3 mM): 108 ± 13%
remaining activity at 10 µM ([4]; ARG 3 mM): 103 ± 10%
remaining activity at 100 µM ([4]; ARG 3 mM): 82 ± 4%
remaining activity at 1000 µM ([4]; ARG 3 mM): 63 ± 8%
remaining activity at 10000 µM ([4]; ARG 3 mM): 22 ± 1%
inhibition at 1000 µM [4, 7]: 44%
inhibition at 10000 µM [4, 7]: 81%
inhibition at 1000 µM [4, 8]: 39%
inhibition at 10000 µM [4, 8]: 78%
SMILES: NCCCC[C@H](N)C(=O)O [LYS, lysine]
Ki (arginase 2; arginase 2 inhibition, ref Colleluori et al. 15): 7000 µM
